pIC50: −log10 of the molar value. Values after ≈ are worked out from the molar mass of the structure shown.

Assay [1] deals with HL-60. The assay is described as follows: Growth inhibition of human HL60 cells incubated for 48 hrs by SRB assay. It is filed as functional. As to conditions: HL-60, 48 h. A general note: Sulforhodamine B stains cellular protein and so reports cell mass.
The test system of assay [2] is SF-539. Put plainly: Growth inhibition of human SF539 cells incubated for 48 hrs by SRB assay. The following applies: SF-539, 48 h. It is filed as functional.
Assay [3] relates to HCC 2998. Put plainly: Growth inhibition of human HCC2998 cells incubated for 48 hrs by SRB assay. The assay is classed as functional. As to conditions: HCC 2998, 48 h.
Assay [4] deals with K562. The assay is described as follows: Growth inhibition of human K562 cells incubated for 48 hrs by SRB assay. The following applies: K562, 48 h. It is filed as functional.
The test system of assay [5] is SKM-1. Put plainly: Cytotoxicity against human SKM1 cells incubated for 48 hrs by SRB assay. It is filed as functional, cell-based. As to conditions: SKM-1, 48 h.
Assay [6] has as its system U-937. The assay is described as follows: Cytotoxicity against human U937 cells incubated for 48 hrs by SRB assay. The assay is classed as functional, cell-based. As to conditions: U-937, 48 h.

Usually GI50 stands for the concentration at which growth is held to half of that of the control. High values mean lower sensitivity of the cells, low ones greater sensitivity of the cells. Consider `C=C1C[C@@H]2C/C=C/C(=O)C/C(C)=C\C=C\C(=O)O[C@H](C=O)C/C(C)=C/[C@H](C1)O2`, for which the concentration for 50% growth inhibition (GI50) in assay [1], in assay [2], in assay [3] and in assay [4] was 0.025 to 0.099 µg/mL (≈ 0.065 to 0.257 µM) each time.
The pIC50 is −log10 of the IC50, conventionally taken in molar units. A low value points to a large IC50. With `C=C1C[C@@H]2C/C=C/C(=O)C/C(C)=C\C=C\C(=O)O[C@H]([C@H](O)NC(=O)/C=C\C=C\C)C/C(C)=C/[C@H](C1)O2` [ZAMPANOLIDE], the negative-log IC50 (pIC50) in assay [5] and in assay [6] was 8.54 to 8.96 throughout.

The record behind these values is ChEMBL document CHEMBL4251592, “Recent advances in microtubule-stabilizing agents” (Eur J Med Chem, 2018).
